Measurements from patent publication US11633377B2, “Treatment of circadian rhythm disorders” (Vanda Pharmaceuticals Inc., priority 2012, dated 2023).
Read-outs that look alike come from different tables or passages of the source. Blank lines part the entries; values can stand above or below the compound they belong to.

Legend:
[1] = Effect of fluvoxamine co-administration on tasimelteon pharmacokinetics; format: in vivo, human; conditions: for AUC: both sexes, human, in vivo
Procedure: Twenty-four healthy male or female subjects between the ages of 18 and 55 years of age (inclusive) who were non-smokers with a body mass index (BMI) of 18 and 35 kg/m2 participated in this open-label, single-sequence study conducted at one site. On day 1, subjects were administered 5.667 mg of tasimelteon.

[2] = Effect of smoking on concentration of tasimelteon and metabolites; format: in vivo, human
Text: Smokers were defined as those smoking 10 or more cigarettes per day. Non-smokers were defined as those smoking no cigarettes per day.

[3] = biological target: T1, Mel1b (MT2R) (Homo sapiens, UniProt P49286); assay: Affinity (Ki) for melatonin receptor MT2R; format: binding; conditions: MT2R vs MT1R
T1 sequence (P49286 1-362): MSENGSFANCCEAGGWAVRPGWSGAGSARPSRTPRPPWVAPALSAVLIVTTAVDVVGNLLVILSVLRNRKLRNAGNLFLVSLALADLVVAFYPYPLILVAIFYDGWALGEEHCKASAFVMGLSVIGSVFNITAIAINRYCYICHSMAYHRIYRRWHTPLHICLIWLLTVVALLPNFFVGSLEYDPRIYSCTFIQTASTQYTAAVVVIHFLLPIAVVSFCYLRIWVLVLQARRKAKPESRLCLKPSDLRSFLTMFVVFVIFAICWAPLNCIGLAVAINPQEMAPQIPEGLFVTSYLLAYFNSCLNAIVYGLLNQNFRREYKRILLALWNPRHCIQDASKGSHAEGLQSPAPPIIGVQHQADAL

[4] = Solubility and pH of saturated solution; format: physicochemical
[5] = tested on: patients with Non-24; assay: SET Study: Phase III randomized, double-masked, placebo-controlled study in Non-24; format: in vivo, human
Procedure: Specifically, patients were orally administered 20 mg tasimelteon per day for at least 12 weeks prior to re-estimating tau. Patients were selected for randomization or open label based on baseline tau estimates. Drug was administered at about 1 hour prior to target sleep time, as determined by patients based on a 9 hour nighttime sleep period.
The SET study was an 84 patient randomized, double-masked, placebo-controlled study in patients with Non-24. The primary endpoints for this study were Entrainment of the melatonin (aMT6s) rhythm to the 24-hour clock and Clinical Response as measured by Entrainment plus a score of greater than or equal to 3 on the following N24CRS:
The SET study also assessed a number of secondary endpoints including Entrainment of cortisol rhythm and a broad range of clinical sleep and wake parameters. These parameters included improvement in the total nighttime sleep in the worst 25% of nights (LQ-nTST), decrease in the total daytime sleep duration in the worst 25% of days (UQ-dTSD) and midpoint of sleep timing (MoST) which is derived from a combination of the sleep reported for both nighttime and daytime. CGI-C is a seven-point rating scale of global functioning with lower scores indicating larger improvements.

[6] = tested on: blind individuals with Non-24; assay: RESET Study: randomized withdrawal study, maintenance of effect in Non-24; format: in vivo, human
Procedure: Patients were treated with tasimelteon for at least twelve weeks during an open-label run-in phase during the SET Study. Patients who responded to tasimelteon treatment during the run-in phase were then randomized to receive either placebo or tasimelteon (20 mg/day) for 2 months.
The primary endpoint of the RESET Study was the maintenance of effect as measured by entrainment of the melatonin (aMT6s) rhythm.
The RESET study also assessed a number of secondary endpoints including maintenance of entrainment of the cortisol rhythm and a range of sleep and wake parameters including LQ-nTST (total nighttime sleep in the worst 25% of nights), UQ-dTSD (total daytime sleep duration in the worst 25% of days) and MoST (midpoint of sleep timing from both nighttime and daytime sleep).

[7] = tested on: Non-24 patients; assay: Entrainment by baseline peak aMT6s and beta blocker status (clinical studies); format: in vivo, human
Procedure: Results of clinicalstudy also show a strong correlation between endogenous melatonin and efficacy of tasimelteon in entraining patients to a 24 hour circadian rhythm. The following table (Table 3A) compares the peak aMT6s levels in the 24 entrained and 23 non-entrained patients.
Data from these studies currently available also indicate that beta blocker therapy is […] related to efficacy of tasimelteon, i.e., patients receiving beta blocker therapy were less likely to become entrained than patients who were not.

[8] = tmax after administration; format: in vivo, human; conditions: tasimelteon
[9] = Day 1: 5.667 mg tasimelteon alone
[10] = Day 8 (with fluvoxamine) vs Day 1
[11] = Day 8: 5.667 mg tasimelteon + 50 mg fluvoxamine
[12] = fluvoxamine + tasimelteon vs tasimelteon alone

Compound: CCC(=O)NC[C@@H]1C[C@H]1c1cccc2c1CCO2 (relative stereo) [Tasimelteon, trans-N-[[2-(2,3-dihydrobenzofuran-4-yl)cycloprop-1yl]methyl]propanamide]
greater affinity for MT2R relative to MT1R [3]: 2-4 times
native pH of a saturated solution in water [4]: 8.5
Clinical Response 2 (Entrainment + N24CRS >=2) ([5]; 20 mg/day oral): 28.9%
Entrainment (aMT6s) ([5]; 20 mg/day oral): 20.0%
LQ-nTST (LS mean minutes) ([5]; LS mean): 57.0 min
CGI-C (LS mean minutes) ([5]; LS mean, smaller numbers indicate improvement): 2.6 min
LQ-nTST and UQ-dTSD >=90 mm ([5]; only subjects with significant sleep and nap problems at baseline): 23.8%
time to relapse analysis ([6]; 45 min decrement of weekly average nighttime sleep, P=0.0907): placebo treated patients relapsed in higher numbers and at an earlier time than tasimelteon treated patients
Maintenance of entrainment (aMT6s) ([6]; RESET, 20 mg/day): 90.0%
maintenance of entrainment (cortisol) ([6]; RESET, 20 mg/day): 80.0%
MoST (LS mean minutes), Difference ([6]; RESET, tasimelteon vs placebo): 36.0 min
maintenance of entrainment (cortisol), Difference ([6]; RESET, tasimelteon vs placebo): 60.0%
Entrained, number of patients [7]: 13
Non-entrained, number of patients [7]: 21
Entrained, % of patients ([7]; Peak aMT6s <1500 ng/hr): 41%
Entrained, number of patients ([7]; Peak aMT6s <1500 ng/hr): 12
Non-entrained, % of patients ([7]; Peak aMT6s <1500 ng/hr): 59%
Non-entrained, number of patients ([7]; Peak aMT6s <1500 ng/hr): 17
Entrained, % of patients ([7]; Peak aMT6s <12000 ng/hr): 38%
Non-entrained, % of patients ([7]; Peak aMT6s <12000 ng/hr): 62%
Entrained, % of patients ([7]; Peak aMT6s >1500 ng/hr): 67%
Entrained, number of patients ([7]; Peak aMT6s >1500 ng/hr): 12
Non-entrained, % of patients ([7]; Peak aMT6s >1500 ng/hr): 33%
Non-entrained, number of patients ([7]; Peak aMT6s >1500 ng/hr): 6
Entrained, % of patients ([7]; Peak aMT6s >2000 ng/hr): 85%
Entrained, number of patients ([7]; Peak aMT6s >2000 ng/hr): 11
Non-entrained, % of patients ([7]; Peak aMT6s >2000 ng/hr): 15%
Non-entrained, number of patients ([7]; Peak aMT6s >2000 ng/hr): 2
Entrained, % of patients ([7]; Peak aMT6s All): 51%
Entrained, number of patients ([7]; Peak aMT6s All): 24
Non-entrained, % of patients ([7]; Peak aMT6s All): 49%
Non-entrained, number of patients ([7]; Peak aMT6s All): 23
Entrained, number of patients ([7]; Taking Beta Blocker: No): 24
Non-entrained, number of patients ([7]; Taking Beta Blocker: No): 19
Entrained, number of patients ([7]; Taking Beta Blocker: Yes): 0
Non-entrained, number of patients ([7]; Taking Beta Blocker: Yes): 4
Geometric Mean Ratio, AUC [1, 10]: 653.36%
Geometric Mean Ratio, CL/F [1, 10]: 15.31%
Geometric Mean Ratio, Cmax [1, 10]: 232.74%
Geometric Mean Ratio, t1/2 [1, 10]: 211.82%
AUC [1, 9]: 102 ± 61.5 ng·h/mL
AUC)-inf increase upon co-administration of fluvoxamine [1, 12]: approximately 7 fold
Cmax increase upon co-administration of fluvoxamine [1, 12]: approximately 2 fold
CL/F ([2]; Non-Smokers): 1,482 ± 1,008 mL/mm
CL/F ([2]; Smokers): 2,290 ± 1,232 mL/mm
Geometric Mean Ratio, AUC (inf) ([2]; Smokers vs Non-Smokers): 60.14%
Geometric Mean Ratio, CL/F ([2]; Smokers vs Non-Smokers): 166.27%
Geometric Mean Ratio, Cmax ([2]; Smokers vs Non-Smokers): 63.98%
Geometric Mean Ratio, Vz/F ([2]; Smokers vs Non-Smokers): 144.39%
Geometric Mean Ratio, t1/2 ([2]; Smokers vs Non-Smokers): 86.84%
tmax [8]: approximately one-half

Compound: CCC(=O)NC[C@@H]1C[C@H]1c1cccc(O)c1CC(=O)O [M9]
Geometric Mean Ratio, AUC [1, 10]: 122.56%
Geometric Mean Ratio, Cmax [1, 10]: 64.94%
Geometric Mean Ratio, t1/2 [1, 10]: 328.02%
AUC [1, 9]: 104 ± 30 ng·h/mL
Geometric Mean Ratio, AUC (inf) ([2]; Smokers vs Non-Smokers): 74.36%
Geometric Mean Ratio, Cmax ([2]; Smokers vs Non-Smokers): 77.18%
Geometric Mean Ratio, t1/2 ([2]; Smokers vs Non-Smokers): 85.40%

Compound: CCC(=O)NC[C@@H]1C[C@H]1c1cccc(O)c1CCO [M11]
Geometric Mean Ratio, AUC [1, 10]: 126.03%
Geometric Mean Ratio, Cmax [1, 10]: 68.71%
Geometric Mean Ratio, t1/2 [1, 10]: 248.35%
AUC [1, 9]: 44.5 ± 17.2 ng·h/mL
Geometric Mean Ratio, AUC (inf) ([2]; Smokers vs Non-Smokers): 81.84%
Geometric Mean Ratio, Cmax ([2]; Smokers vs Non-Smokers): 84.50%
Geometric Mean Ratio, t1/2 ([2]; Smokers vs Non-Smokers): 94.13%

The next lines start with the values.

AUC (ml) [1, 9]: 106 ± 32.6 ng·h/mL
Geometric Mean Ratio, AUC [1, 10]: 125.05%
Geometric Mean Ratio, Cmax [1, 10]: 69.31%
Geometric Mean Ratio, t1/2 [1, 10]: 349.81%
AUC (ml) [1, 11]: 133 ± 32.9 ng·h/mL
Geometric Mean Ratio, AUC (inf) ([2]; Smokers vs Non-Smokers): 97.31%
Geometric Mean Ratio, Cmax ([2]; Smokers vs Non-Smokers): 99.49%
Geometric Mean Ratio, t1/2 ([2]; Smokers vs Non-Smokers): 77.51%
Compound: CCC(=O)NCC1CC1c1cccc2c1CC(O)O2 (centres unmarked) [M13]

AUC (ml) [1, 9]: 189 ± 90.8 ng·h/mL
Geometric Mean Ratio, AUC [1, 10]: 274.81%
Geometric Mean Ratio, Cmax [1, 10]: 92.74%
Geometric Mean Ratio, t1/2 [1, 10]: 241.02%
AUC (ml) [1, 11]: 435 ± 109.3 ng·h/mL
Geometric Mean Ratio, AUC (inf) ([2]; Smokers vs Non-Smokers): 84.87%
Geometric Mean Ratio, Cmax ([2]; Smokers vs Non-Smokers): 115.53%
Geometric Mean Ratio, t1/2 ([2]; Smokers vs Non-Smokers): 73.31%
Compound: CCC(=O)NCC1CC1c1cccc2c1C(O)CO2 (centres unmarked) [M12]

AUC (ml) [1, 9]: 4.54 ± 2.39 ng·h/mL
Geometric Mean Ratio, AUC [1, 10]: 944.73%
Geometric Mean Ratio, Cmax [1, 10]: 264.58%
Geometric Mean Ratio, t1/2 [1, 10]: 243.34%
AUC (ml) [1, 11]: 42.6 ± 27.3 ng·h/mL
Geometric Mean Ratio, AUC (inf) ([2]; Smokers vs Non-Smokers): 42.98%
Geometric Mean Ratio, Cmax ([2]; Smokers vs Non-Smokers): 60.17%
Geometric Mean Ratio, t1/2 ([2]; Smokers vs Non-Smokers): 65.09%
Compound: CCC(=O)NCC1CC1c1cccc2c1C(O)CO2 (centres unmarked) [M14]
